Data from patent publication EP1861101B1, “USE OF AMIDES OF SULFADIMIDINE FOR THE TREATMENT OF INTESTINAL DISEASES IN VETERINARY SCIENCE” (priority 2005, dated 2006).
Read-outs that look alike come from different tables or passages of the source.

How the values were obtained:
digestive syndrome = assay: prevention and treatment of digestive syndrome (colibacillosis and enterotoxemia) in rabbit farming; type: in vivo; conditions: rabbits
Text: Given the complex relations existing between colibacillosis and enterotoxemia, they are currently included under the designation "digestive syndrome" for practical purposes. Treatment with an association of systemic drugs with drugs acting exclusively on the intestinal tract is indicated.
In the following table 2 the use of SMAA is compared to the products used most often in rabbit farming for the prevention and treatment of digestive syndrome: Table 2

C. perfringens = type: in vivo, lambs; conditions: 500 g/ton of feed
[1] = depletion of residue in lambs fed treated feed until the day of slaughter; type: in vivo; conditions: lambs that consumed treated feed until the day of slaughter
[2] = test system: Clostridium, E. coli, Salmonella, and Eimeria parasites; assay: treatment of ovine livestock with SMAA in food; type: in vivo; conditions: even at high doses
Text: In general, ovine livestock according to the invention is preferably treated with SMAA in food. The invention is especially useful for the prevention of enteric bacterial processes, mainly due to Clostridium, E. coli, Salmonella, and Eimeria parasites. […] Incompatibilities with other medicaments are unknown. It is not necessary to establish a withdrawal period before slaughter.
According to the invention, the association of SMAA-chlortetracycline is preferred when the pathology is located fundamentally in the digestive tract, and the association of SMAA-oxytetracycline when a preventive action at the enteric and respiratory level is sought. The most habitual doses range from 200 and 400 g/ton of feed, although it can be raised to 750 g/ton without problems.

Eimeria = assay: field tests, treatment of coccidiosis in broilers through feed; type: in vivo; conditions: 200 to 400 g/metric ton of feed; given in the first three weeks of life, then replaced by another coccidiostatic
Experimental: SMAA was used for the treatment of coccidiosis in broilers through feed, at doses ranging from 200 to 400 g/metric ton of feed. The best results in terms of mortality, weight gain, and conversion index have been obtained when SMAA is administered in the first three weeks of life of the chickens, and then replaced by another coccidiostatic. To this effect, our experience confirms the observations that an even improved productivity is obtained when two different coccidiostatics are alternated in the growth period.

[3] = test system: digestive bacterial diseases in pigs; assay: SMAA in feed against enteric processes in swine; type: in vivo; conditions: 400-600 g per ton of feed
Serpulina hyodisenteriae = assay: SMAA in feed against swine dysentery; type: in vivo; conditions: 550-600 g per ton of feed
Text: Although establishing a dose for the administration of a therapeutic molecule is always difficult, because therapeutic efficacy not depend only on its efficacy at a given dose, but also on the state of the animals, management, sanitary conditions of operation, feeding etc., good results were obtained with SMAA in swine at doses of 550-600 g of SMAA per ton of feed. The association of SMAA with macrolides is interesting, but it is extremely important to consider the withdrawal period of the macrolide to avoid the accumulation of residues in carcasses.

solubility in water = type: physicochemical
Text: If the amide is the amide of maleic acid (SMAA), the amide comprises one carboxylic group. […] The free acids of the compound of the invention are essentially water insoluble and electrically neutral compounds, which become soluble in water when the free carboxyl group or other groups in the compound are converted to the carboxylate form by addition of an equivalent amount of an appropriate base, for instance an alkali or ammonium hydroxide or amine or alkanolamine.

[4] = growth feed for swine; cited from earlier work
[5] = test system: Clostridium, E. coli, and Salmonella; assay: treatment of ovine livestock with soluble SMAA in drinking water; type: in vivo
Experimental: In another preferred embodiment of the invention, soluble SMAA is applied with drinking water. This application is especially useful for the treatment of enteric bacterial processes, mainly Clostridium, E. coli, and Salmonella. […] Incompatibilities with other medicaments are unknown. A withdrawal period before slaughter is not necessary. When non-absorbable derivatives of sulfadimidine are added to drinking water, they are not often associated with other molecules. […] The usual dose ranges from 550-1100 g/2000 liters of water for 4 to 6 days. The availability of a soluble form makes it possible to administer the product in a milk substitute. In this case the dosage should be established in relation to the consumption of powdered milk substitutes.

## CCN1CCN(c2cc3c(cc2F)c(=O)c(C(=O)O)cn3C2CC2)CC1 [Enrofloxacin]
Digestive syndrome; efficacy remark
  Observations: Effective

## O=C1OCCN1/N=C/c1ccc([N+](=O)[O-])o1 [Furazolidone]
Digestive syndrome; efficacy remark
  Observations: Effective.

## Cc1cc(C)nc(NS(=O)(=O)c2ccc(NC(=O)/C=C\C(=O)O)cc2)n1 [SMAA, 4,6-dimethyl-2-N^4-maleylsulfanilamidopyrimidine]
Digestive syndrome; duration of treatment and toxicity
  Observations: Treatment can be prolonged without risk of toxicity
Digestive syndrome; effect on mortality
  Observations: This treatment curtails mortality
Digestive syndrome; efficacy remark
  Observations: The most effective agent in mixed infections by Coccidia
C. perfringens; end of trial (4 weeks), due to undetermined causes
  mortality: lower than 0.3%
C. perfringens; end of trial (4 weeks), five thousand lambs, richer feed (1.03 UFC)
  enterotoxemia in the livestock: absent
C. perfringens; trial of 4 weeks
  watery diarrhea caused by E. coli, Salmonella dysentery, or coccidiosis: no case
[1]
  residue level in meat: below 30 ppb
[2]
  dysbacteriosis: no problems of dysbacteriosis have appeared
Eimeria
  mortality, weight gain, and conversion index: best results
[3]
  results in swine: good results
Serpulina hyodisenteriae
  results in swine: good results
Solubility in water; listed as free acid of SMAA
  solubility in water: essentially insoluble
Coccidia; efficacy remark, rabbits
  Observations: most effective in mixed infections with E. coli
Coccidia; rabbit, in vivo
  Observations: Treatment can be extended up to 3 weeks, if given in low doses, without risk of toxicity or residues in carcasses

## COc1cc(NS(=O)(=O)c2ccc(NC(=O)/C=C\C(=O)O)cc2)nc(OC)n1 [Sulfadimethoxine maleic acid amide]
Coccidia; efficacy remark, rabbits
  Observations: Very interesting in mixed infections
Coccidia; rabbit, in vivo
  Observations: Treatments can continue for 21 days without risk of toxicity or residues in carcasses

## COc1cc(NS(=O)(=O)c2ccc(N)cc2)nc(OC)n1 [Sulfadimethoxine]
Coccidia; efficacy remark, rabbits
  Observations: Very interesting in mixed infections
Coccidia; rabbit, in vivo
  Observations: requires a period of withdrawal before slaughter

## Cc1cc(C)nc(NS(=O)(=O)c2ccc(N)cc2)n1 [Sulfadimidine, 2-(4-aminobenzenesulfonamido)-4,6-dimethylpyrimidine]
Coccidia; effect on mortality, rabbits
  Observations: This treatment curtails mortality
[4]
  withdrawal period: 28 days

## Cc1cc(C)nc(NS(=O)(=O)c2ccc(NC(=O)/C=C\C(=O)O)cc2)n1 [soluble SMAA]
[5]; even at high doses
  dysbacteriosis: no problems of dysbacteriosis have appeared
[5]; usually 4 to 6 days
  treatment of coccidiosis outbreaks: highly effective
Solubility in water; listed as sodium salt
  solubility in water: essentially soluble

## Colistin
Digestive syndrome; effect on mortality
  Observations: Colistin reduces mortality

## Neomycin
Digestive syndrome; efficacy remark
  Observations: Efficacious against moderately pathogenic strains.
